Experimental data as given in PubChem BioAssay (NCI).
Values joined by “and” are separate entries in the source; they are usually repeats but may differ in a detail not shown here. Equal entries are not always repeated.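 Compound exposure: 48 hours, 5 concentrations, 96-well plates. At the GI50, growth is halved. TGI marks complete inhibition of growth.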

What was measured:
Experiment in all cases: inhibition of tumour cell growth, NCI panel, 48 h
OVCAR-8 ovarian = tested on: OVCAR-8 ovarian
CAKI-1 renal = tested on: CAKI-1 renal
SK-MEL-2 melanoma = tested on: SK-MEL-2 melanoma
A549 NSCLC = tested on: A549 NSCLC
SNB-19 CNS = tested on: SNB-19 CNS
K-562 leukemia = tested on: K-562 leukemia
OVCAR-5 ovarian = tested on: OVCAR-5 ovarian
COLO 205 colon = tested on: COLO 205 colon
HL-60(TB) leukemia = tested on: HL-60(TB) leukemia
M14 melanoma = tested on: M14 melanoma

| Compound | TGI (OVCAR-8 ovarian) [µM] | TGI (CAKI-1 renal) [µM] | TGI (SK-MEL-2 melanoma) [µM] | TGI (A549 NSCLC) | TGI (SNB-19 CNS) [µM] | TGI (K-562 leukemia) [µM] | TGI (OVCAR-5 ovarian) [µM] | TGI (COLO 205 colon) [µM] | TGI (HL-60(TB) leukemia) | TGI (M14 melanoma) [µM] | GI50 (OVCAR-8 ovarian) | GI50 (HL-60(TB) leukemia) [µM] | GI50 (CAKI-1 renal) | GI50 (SK-MEL-2 melanoma) [µM] | GI50 (A549 NSCLC) | GI50 (SNB-19 CNS) | GI50 (K-562 leukemia) | GI50 (OVCAR-5 ovarian) | GI50 (COLO 205 colon) | GI50 (M14 melanoma) |
| --- | --- | --- | --- | --- | --- | --- | --- | --- | --- | --- | --- | --- | --- | --- | --- | --- | --- | --- | --- | --- |
| CCC(C)(O)c1cnc(CC(C)C)c(=O)n1O (configuration not stated) | > 100 | > 100 | > 100 | > 100 µM | > 100 | 47.8 | 25.8 | > 100 |  |  |  |  |  |  |  |  |  |  |  |  |
| COc1ccc(C(=O)c2cc(OC)c(OC)c(OC)c2)cc1OC | > 100 |  | > 100 | > 100 µM |  | > 100 | > 100 |  | 11.7 µM | > 100 |  |  |  |  |  |  |  |  |  |  |
| Cc1ccc(OCCOCCOCCOCCOc2ccc(C)n(O)c2=S)c(=S)n1O | > 100 | > 100 | > 100 | > 100 µM | > 100 | > 100 | > 100 | > 100 | 5.95 µM |  | < 0.0137 µM | 0.11 | < 0.0146 µM | 4.86 | 0.0449 µM | 0.221 µM | < 0.01 µM | 0.408 µM | 0.0484 µM |  |
| COc1cc(/C=C\c2cc(OC)c(OC)c(OC)c2)cc(N/C=C\C(=O)c2c[nH]c3ccccc23)c1OC | 13.3 | 2.95 | 4.68 | 34.8 µM | 24.4 | > 100 | 7.03 | 3.2 |  | 12.6 | 3.33 µM |  | 1.58 µM | 2.21 | 14.5 µM | 3.92 µM | 1.54 µM | 2.45 µM | 1.51 µM | 2.87 µM |
| COc1ccc(-c2nc(-c3cc(OC)cc(OC)c3)[nH]c2-c2ccc(OC)cc2)cc1 | > 100 | > 100 |  | > 100 µM | > 100 | > 100 | > 100 | > 100 | > 100 µM | > 100 | 9.77 µM | 3.74 | 6.24 µM |  | 5.31 µM | > 100 µM | 5.02 µM | > 100 µM | 3.68 µM | 8.37 µM |
| CCN1c2ccccc2-c2c3c1cc(C)cc3c1ccccc1[n+]2CC | 1.86 | 5.88 | 4.29 | 13.8 µM | 3.16 | 2.12 | 4.1 |  |  | 3.74 |  |  |  |  |  |  |  |  |  |  |
| CN(C(=O)c1ccc([N+](=O)[O-])cc1)c1ccccc1 | > 100 | > 100 |  | > 100 µM | > 100 | > 10 | > 100 | > 100 |  | > 100 |  |  |  |  |  |  |  |  |  |  |
| O=C(Nc1cc(Nc2ncccc2-c2ncnc3nc[nH]c23)ccc1F)c1cc(C(F)(F)F)cc(C(F)(F)F)c1 | > 10 |  | 2.41 | > 10 µM | > 10 | > 10 | 2.98 | 2.2 | 8.44 µM | 1.6 | 3.67 µM | 0.439 |  | 0.355 | 3.05 µM | 3.78 µM | 0.4 µM | 0.868 µM | 0.39 µM | 0.33 µM |
| O=C1CCCN1c1ccccc1I(=O)=O | > 100 | > 100 | > 100 | > 100 µM | > 100 | > 100 | > 100 | > 100 | > 100 µM |  | > 100 µM | > 100 | > 100 µM | > 100 | > 100 µM | > 100 µM | > 100 µM | > 100 µM | > 100 µM |  |
| Cn1cc(-c2csc(-c3cn(CCCCN4CCCCC4)c4ccccc34)n2)c2cccnc21 |  |  |  | 3.37 µM | 3.07 |  | 3.06 |  |  |  |  |  |  |  | 1.79 µM | 1.64 µM |  | 1.6 µM |  |  |
| COc1ccc(-c2ccc3c(N4CCOC[C@@H]4C)nc(N4CCOC[C@@H]4C)nc3n2)cc1CO | 3.39 | 5.15 |  | 1.78 µM and 0.57 µM | > 100 | > 100 | 60.3 |  | > 3.76 µM and 20.7 µM | 20.5 | 0.00759 µM and 0.0351 µM |  | 0.00473 µM and 0.0302 µM |  | 0.0052 µM and 0.0253 µM | 0.00693 µM and 0.0491 µM | 0.012 µM and 0.0551 µM | 0.00607 µM and 0.0331 µM | 0.00502 µM and 0.0474 µM | 0.00517 µM and 0.0262 µM |
| CC1CC(O)C(=O)C(O[C@@H]2C[C@@H]3CC[C@@H]4[C@H](CC[C@]5(C)C(C6=CC(=O)OC6)CC[C@]45O)[C@@]3(C=O)C[C@H]2O)O1 (some centres not stated) | 0.163 | 0.0597 |  | < 0.0199 µM | 0.0316 |  | 0.283 | 0.491 | 0.155 µM | 0.178 |  |  |  |  |  |  |  |  |  |  |
| O=[N+]([O-])c1cccc(C2=NOC(C3CCCCC3)C2)c1 (configuration not stated) | > 100 |  | > 100 | > 100 µM |  | > 100 | > 100 | > 100 | > 100 µM | > 100 |  |  |  |  |  |  |  |  |  |  |
| CC1=NN(C(=O)CC(=O)Nc2ccccc2F)C(=O)C1N=Nc1ccccc1[N+](=O)[O-] (configuration not stated) | > 100 | > 100 | > 100 | > 100 µM | > 100 | > 100 | > 100 | > 100 |  | > 100 |  |  |  |  |  |  |  |  |  |  |
| COc1ccc(C(CC(=O)c2ccc3c(c2)OCO3)c2c(O)c3ccccc3oc2=O)cc1OC (configuration not stated) | > 100 | > 100 | > 100 | > 100 µM | > 100 | > 100 | > 100 | > 100 | > 100 µM |  |  |  |  |  |  |  |  |  |  |  |
| Cc1ccc(C)c(N2C/C(=N\NC(=O)CC#N)C(c3nc4ccccc4s3)C(=O)C2=O)c1 (configuration not stated) | > 100 | > 100 | > 100 | > 100 µM | > 100 |  |  | > 100 | > 100 µM | > 100 |  |  |  |  |  |  |  |  |  |  |
| Cc1ccccc1C1=[N+]([O-])c2ccc(Cl)cc2C1=O | 19.3 |  | 46 | 34.2 µM | 64.4 | 24.1 | 37.8 | 20.2 | 6.22 µM | 29.9 |  |  |  |  |  |  |  |  |  |  |
| O=C(Nc1cc(Cl)ccc1O)c1ccc(Nc2ccnc(C(F)(F)F)c2)cc1 | > 100 | 7.77 |  | > 100 µM | 7.78 | > 100 | > 100 | 4.23 | 4.42 µM | 54.1 | 4.54 µM | 1.25 | 2.02 µM |  | 3.97 µM | 2.15 µM | 2.89 µM | 3.61 µM | 1.86 µM | 3.56 µM |
